The source of these data is the NIST ThermoML archive (doi:10.1021/je800837z).

± gives the expanded uncertainty stated by the source.

The conditions of the data set: Crystal; DTA.

Regarding `CCN1CCN(C(=O)N[C@H](C(=O)N[C@H]2C(=O)N3C(C(=O)[O-])=C(CSc4nnnn4C)CS[C@@H]23)c2ccc(O)cc2)C(=O)C1=O.[Na+]`, the Normal melting temperature is 180.00 ± 1.1 °C.
